Laboratory results as given in ChEMBL document CHEMBL5214968, “Recent Scaffold Hopping Applications in Central Nervous System Drug Discovery” (J Med Chem, 2022).
pEC50, pKd, pKi: −log10 of the molar value.

What was measured:
[1] = target: Microtubule-associated protein tau (Homo sapiens) (UniProt P10636); assay: Inhibition of heparin-induced tau protein (unknown origin) aggregation at 100 uM incubated for 3 days by Thioflavin T fluorescence assay; details: time 3.0 day
Cannabinoid receptor 2 = Cannabinoid receptor 2 (Homo sapiens, UniProt P34972); assay: Agonist activity at human CB2 receptor expressed in mouse AtT20 cells by FLIPR assay; type: functional, cell-based
Cannabinoid receptor 1 = Cannabinoid receptor 1 (Homo sapiens, UniProt P21554); assay: Agonist activity at human CB1 receptor expressed in mouse AtT20 cells by FLIPR assay; type: functional, cell-based
[2] = target: T1, Cyclin-G-associated kinase (Homo sapiens, UniProt O14976); assay: Binding affinity to GAK (unknown origin) by KINOMEscan analysis
T1 sequence (O14976 whole entry): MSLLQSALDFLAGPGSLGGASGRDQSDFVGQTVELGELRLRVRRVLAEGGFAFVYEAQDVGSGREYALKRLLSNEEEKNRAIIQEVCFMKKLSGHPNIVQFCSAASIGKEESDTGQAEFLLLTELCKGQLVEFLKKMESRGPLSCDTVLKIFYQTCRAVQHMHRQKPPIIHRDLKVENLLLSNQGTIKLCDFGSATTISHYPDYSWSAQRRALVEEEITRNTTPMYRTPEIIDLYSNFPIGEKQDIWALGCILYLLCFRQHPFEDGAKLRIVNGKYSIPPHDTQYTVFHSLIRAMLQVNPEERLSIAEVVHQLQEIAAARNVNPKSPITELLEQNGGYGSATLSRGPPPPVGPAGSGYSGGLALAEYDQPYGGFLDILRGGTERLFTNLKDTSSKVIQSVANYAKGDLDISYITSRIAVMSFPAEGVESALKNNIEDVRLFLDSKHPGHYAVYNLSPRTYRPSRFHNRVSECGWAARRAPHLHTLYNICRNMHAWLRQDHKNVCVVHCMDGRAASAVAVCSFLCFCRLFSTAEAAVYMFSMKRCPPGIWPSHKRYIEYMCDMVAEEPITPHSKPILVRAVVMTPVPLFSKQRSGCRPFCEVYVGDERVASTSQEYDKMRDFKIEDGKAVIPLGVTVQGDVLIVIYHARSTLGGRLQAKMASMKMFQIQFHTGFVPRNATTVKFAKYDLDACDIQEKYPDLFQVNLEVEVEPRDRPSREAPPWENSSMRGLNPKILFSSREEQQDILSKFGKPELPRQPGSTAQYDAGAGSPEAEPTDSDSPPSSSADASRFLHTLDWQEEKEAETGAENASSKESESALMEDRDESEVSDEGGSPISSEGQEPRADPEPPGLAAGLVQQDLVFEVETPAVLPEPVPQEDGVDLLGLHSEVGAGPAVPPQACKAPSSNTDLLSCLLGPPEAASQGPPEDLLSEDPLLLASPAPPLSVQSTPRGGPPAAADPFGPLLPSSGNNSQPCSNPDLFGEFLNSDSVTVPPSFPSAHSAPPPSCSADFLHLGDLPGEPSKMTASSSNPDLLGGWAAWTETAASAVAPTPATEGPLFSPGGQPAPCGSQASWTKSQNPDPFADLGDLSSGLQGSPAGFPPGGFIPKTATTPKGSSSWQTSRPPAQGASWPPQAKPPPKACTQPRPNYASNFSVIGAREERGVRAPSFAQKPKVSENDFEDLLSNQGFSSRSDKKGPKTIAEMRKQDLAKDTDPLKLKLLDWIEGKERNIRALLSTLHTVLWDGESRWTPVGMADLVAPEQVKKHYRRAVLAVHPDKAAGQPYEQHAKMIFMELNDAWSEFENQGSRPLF

Mu-type opioid receptor = Mu-type opioid receptor (Homo sapiens, UniProt P35372); assay: Displacement of [3H]DAMGO from human cloned mu-opioid receptor by radioligand binding assay
Chain of Mu-type opioid receptor (P35372 whole entry): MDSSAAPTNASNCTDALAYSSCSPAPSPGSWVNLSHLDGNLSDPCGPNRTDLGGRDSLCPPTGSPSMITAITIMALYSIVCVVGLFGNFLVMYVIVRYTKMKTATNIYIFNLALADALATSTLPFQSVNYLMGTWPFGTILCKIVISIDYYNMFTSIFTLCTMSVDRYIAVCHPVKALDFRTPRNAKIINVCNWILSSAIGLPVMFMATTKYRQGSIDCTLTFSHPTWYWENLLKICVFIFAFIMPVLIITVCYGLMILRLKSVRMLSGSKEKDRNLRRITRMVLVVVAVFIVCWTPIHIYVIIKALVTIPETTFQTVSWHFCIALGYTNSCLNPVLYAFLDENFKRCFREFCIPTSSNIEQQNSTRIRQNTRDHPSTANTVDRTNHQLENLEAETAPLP

Chain of Microtubule-associated protein tau (Homo sapiens) (P10636 whole entry): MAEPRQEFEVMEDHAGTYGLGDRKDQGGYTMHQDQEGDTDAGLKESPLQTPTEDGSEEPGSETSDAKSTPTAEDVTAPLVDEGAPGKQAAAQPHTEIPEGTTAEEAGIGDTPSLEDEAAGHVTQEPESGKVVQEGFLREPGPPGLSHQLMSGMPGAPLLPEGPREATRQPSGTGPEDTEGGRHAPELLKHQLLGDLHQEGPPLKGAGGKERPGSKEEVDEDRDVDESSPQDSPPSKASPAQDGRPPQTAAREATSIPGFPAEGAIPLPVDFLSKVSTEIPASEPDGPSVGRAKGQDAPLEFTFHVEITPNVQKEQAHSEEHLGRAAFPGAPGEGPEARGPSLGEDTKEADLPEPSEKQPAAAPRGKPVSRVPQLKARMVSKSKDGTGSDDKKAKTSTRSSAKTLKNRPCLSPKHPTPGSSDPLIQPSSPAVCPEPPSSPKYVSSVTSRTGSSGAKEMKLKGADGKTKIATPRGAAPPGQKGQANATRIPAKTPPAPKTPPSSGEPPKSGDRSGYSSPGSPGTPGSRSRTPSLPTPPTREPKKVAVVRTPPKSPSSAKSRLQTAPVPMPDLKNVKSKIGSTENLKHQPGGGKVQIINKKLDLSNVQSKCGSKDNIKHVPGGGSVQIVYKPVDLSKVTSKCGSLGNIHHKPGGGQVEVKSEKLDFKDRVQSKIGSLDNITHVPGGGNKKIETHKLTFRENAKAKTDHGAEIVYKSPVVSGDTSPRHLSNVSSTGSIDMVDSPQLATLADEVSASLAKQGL
Chain of Cannabinoid receptor 1 (P21554 whole entry): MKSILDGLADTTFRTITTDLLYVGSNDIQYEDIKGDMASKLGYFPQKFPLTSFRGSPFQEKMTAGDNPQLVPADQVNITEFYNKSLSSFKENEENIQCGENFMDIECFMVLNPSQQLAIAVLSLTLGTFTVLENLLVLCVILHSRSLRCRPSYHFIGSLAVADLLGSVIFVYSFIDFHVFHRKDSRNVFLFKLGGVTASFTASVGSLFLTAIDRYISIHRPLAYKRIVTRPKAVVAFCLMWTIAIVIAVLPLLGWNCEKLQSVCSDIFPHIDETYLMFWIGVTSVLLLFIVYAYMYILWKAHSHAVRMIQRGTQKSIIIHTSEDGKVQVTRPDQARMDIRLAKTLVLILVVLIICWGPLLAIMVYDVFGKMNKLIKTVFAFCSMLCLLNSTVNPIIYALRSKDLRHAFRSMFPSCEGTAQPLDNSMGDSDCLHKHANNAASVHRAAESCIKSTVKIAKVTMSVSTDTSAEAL
Chain of Cannabinoid receptor 2 (P34972 whole entry): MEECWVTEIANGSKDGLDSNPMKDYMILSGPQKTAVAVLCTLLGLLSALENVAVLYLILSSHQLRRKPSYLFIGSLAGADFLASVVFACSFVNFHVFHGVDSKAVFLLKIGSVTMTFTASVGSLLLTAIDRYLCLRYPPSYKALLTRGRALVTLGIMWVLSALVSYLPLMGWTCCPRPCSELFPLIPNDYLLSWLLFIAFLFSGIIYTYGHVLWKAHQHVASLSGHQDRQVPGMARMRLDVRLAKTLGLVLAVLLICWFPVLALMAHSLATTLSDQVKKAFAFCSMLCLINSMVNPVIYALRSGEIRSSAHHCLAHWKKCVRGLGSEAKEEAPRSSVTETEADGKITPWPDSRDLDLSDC

SMILES	inhibition [1] [%]	pEC50 (Cannabinoid receptor 2)	pEC50 (Cannabinoid receptor 1)	other results
O=C(NC1CC1)c1nn(-c2ccc(F)cc2)c(=O)c2cscc12	51			
CC(C)(NC(=O)c1cn(CCCCCF)c2ncccc12)c1ccccc1		7.95	8.33	
CC(C)(NC(=O)c1nn(CCCCCF)c2ccccc12)c1ccccc1		7.95	9.37	
COc1ccc(-c2cnc3c(c2)nnn3-c2ccccc2)cc1OC				pKd [2]: < 4.52
CC(C)(NC(=O)c1cn(CCCCCF)c2ccccc12)c1ccccc1		7.40	8.55	
C=CCO/N=C(\C(=O)NC1CC1)c1cscc1C(=O)Nc1ccc(F)cc1	33			
O=C(NCCc1ccccc1)[C@H]1CCN(C(=O)Cc2ccc(O)cc2)[C@@H]1C(=O)NCCc1c[nH]c2ccccc12				pKi (Mu-type opioid receptor): 6.09
O=C(NC1CC1)/C(=N\O)c1cscc1C(=O)NC12CC3CC(CC(C3)C1)C2	30			
